# From US20140309192A1, “MODULATORS OF THE G PROTEIN-COUPLED MAS RECEPTOR AND THE TREATMENT OF DISORDERS RELATED THERETO” (ARENA PHARMACEUTICALS, INC., priority 2011, published 2014)
# Counter-ions that a name gives are not always drawn.
# Assay: Dynamic moisture-sorption (DMS)
# Assay type: physicochemical
# Conditions: for hygroscopicity (DMS) / total weight gain from the dried state (DMS): 25° C.; for weight gain at 90% RH and 25° C. (DMS): after a drying period
# Experimental: A dynamic moisture-sorption (DMS) study was conducted using a dynamic moisture-sorption analyzer, VTI Corporation, SGA-100. Samples were prepared for DMS analysis by placing 5 mg to 20 mg of a sample in a tared sample holder. The sample was placed on the hang-down wire of the VTI balance. A drying step was run, typically at 40° C. and 0.5-1% RH for 1 h. The isotherm temperature is 25° C. Defined % RH holds typically ranged from 10% RH to 90% RH, with intervals of 10 to 20% RH. A % weight change smaller than 0.010% over 10 min, or up to 2 h, whichever occurred first, was required before continuing to the next % RH hold. The water content of the sample equilibrated as described above was determined at each % RH hold.
Compound,hygroscopicity (DMS),weight gain at 90% RH and 25° C. (DMS),total weight gain from the dried state (DMS),water picked up from 30% RH to 90% RH at 25° C. (DMS)
"NC(=O)[C@H](CO)NCc1ccc(C(=O)Nc2ccc(Cl)cc2N2CCN(CCC(F)(F)F)CC2)c(F)c1F [Compound 170, (S)-4-((1-Amino-3-hydroxy-1-oxopropan-2-ylamino)methyl)-N-(4-chloro-2-(4-(3,3,3-trifluoropropyl)piperazin-1-yl)phenyl)-2,3-difluorobenzamide]",non-hygroscopic,~0.1%,,
NC(=O)[C@H](CO)NCc1ccc(C(=O)Nc2ccc(Cl)cc2N2CCN(CCC(F)(F)F)CC2)c(F)c1F [Compound 170 dihydrochloride solvate],,,"The total weight gain from the dried state was about 2%, thus",
NC(=O)[C@H](CO)NCc1ccc(C(=O)Nc2ccc(Cl)cc2N2CCN(CCC(F)(F)F)CC2)c(F)c1F [Compound 170 (Example 2.5B)],"FIG. 11: This polymorph of the free base is non-hygroscopic,",increasing ~0.1% weight at 90% RH and 25 °C,,
"Cl.Cl.NC(=O)[C@H](CO)NCc1ccc(C(=O)Nc2ccc(Cl)cc2N2CCN(CCC(F)(F)F)CC2)c(F)c1F [Compound 170 dihydrochloride, (S)-4-((1-amino-3-hydroxy-1-oxopropan-2-ylamino)methyl)-N-(4-chloro-2-(4-(3,3,3-trifluoropropyl)piperazin-1-yl)phenyl)-2,3-difluorobenzamide dihydrochloride]",,"drying period, was about 3.4%. It was shown by PXRD of the",,
NC(=O)[C@H](CO)NCc1ccc(C(=O)Nc2ccc(Cl)cc2N2CCN(CCC(F)(F)F)CC2)c(F)c1F [Compound 170 dihydrochloride hydrate],,,dried state was about 2.5%. The sample picked up only about,0.7% water from 30% RH to 90% RH at 25 °C
